Test results taken from patent US4691024A, “New mitomycin derivatives, preparation thereof and pharmaceutical compositions containing them” (priority 1984, dated 1987).
Values after ≈ are worked out from the molar mass of the structure shown. Where a name gives a salt, the structure may show the parent alone.

What was measured:
Bacillus subtilis 10707 = assay: Antibacterial activity, minimum growth inhibitory concentration by agar dilution method (BS); assay type: cell-based; details: Bacillus subtilis, 10707, pH 7, read-out: MIC, Bacillus subtilis (BS)
Protocol: (§1) The various compounds of formula (I) of Examples 1-26 were tested for antibacterial activity against 6 microorganisms. […]. In this table, the following symbols are used:
BS: Bacillus subtilis 10707

[1] = test system: Staphylococcus aureus ATCC 6538P; assay: Antibacterial activity, minimum growth inhibitory concentration by agar dilution method (SA); assay type: cell-based; details: ATCC6538P, pH 7, read-out: MIC, Staphylococcus aureus (SA)
Protocol: as §1
SA: Staphylococcus aureus ATCC 6538P

[2] = test system: Shigella sonnei ATCC 9290; assay: Antibacterial activity, minimum growth inhibitory concentration by agar dilution method (SS); assay type: cell-based; details: ATCC9290, pH 7, read-out: MIC, Shigella sonnei (SS)
Protocol: as §1
SS: Shigella sonnei ATCC 9290

peripheral leucocytes = assay: Effect on the peripheral leucocytes number in Sarcoma 180 bearing mice; assay type: in vivo; details: Sarcoma 180 bearing ddy mice; intraperitoneal 24 hours after implantation; blood 4 days later
Protocol: (§2) The antitumour-activity and toxicity of various compounds of formula (I) were investigated as indicated below.
(4) Effect on the peripheral leucocytes number
Sarcoma 180 solid tumour cells (5×10^6) were subcutaneously implanted into the right arm pit of each mouse (body weight 20±2 g) of a group consisting of 5 male mice (ddy strain). 24 hours after implantation, a test compound was intraperitoneally administered to each animal. 4 days later, blood (each 0.02 ml) was collected from the suborbital plexus vein of each tumour-carrying animal. The collected sample of the blood was dispersed in 9.98 ml of Cell-Kit Seven solution. One drop of saponin solution was added to the sample to dissolve erythrocytes, and then a microcell counter was used to measure the number of leucocytes. On a graph paper, the number of leucocytes was indicated on the y-axis by an arithmetic scale and the dose of the test compound was indicated on the x-axis by a logarithmic scale. The relationship between the number of peripheral leucocytes and the dosage of the test compound was plotted and the dosage corresponding to 4000 peripheral leucocytes/mm^3 (about 1/2 the number of leucocytes of normal mice) was obtained. This value is denoted in Table 5 by WBC4000.

[3] = test system: Proteus vulgaris ATCC 6897; assay: Antibacterial activity, minimum growth inhibitory concentration by agar dilution method (PV); assay type: cell-based; details: ATCC6897, pH 7, read-out: MIC, Proteus vulgaris (PV)
Protocol: as §1
PV: Proteus vulgaris ATCC 6897

[4] = test system: Streptococcus faecalis ATCC 10541; assay: Antibacterial activity, minimum growth inhibitory concentration by agar dilution method (SF); assay type: cell-based; details: Enterococcus faecalis, ATCC10541, pH 7, read-out: MIC, Streptococcus faecalis (SF)
Protocol: as §1
SF: Streptococcus faecalis ATCC 10541

[5] = test system: Klebsiella pneumoniae ATCC 10031; assay: microbe, parasite or virus in culture; assay type: cell-based; details: ATCC10031, pH 7, read-out: MIC, Klebsiella pneumoniae (KP)
Description: In this table, the following symbols are used:
KP: Klebsiella pneumoniae ATCC 10031

Sarcoma 180 solid tumour = assay: Anti-tumour activity against Sarcoma 180 solid tumour in mice; assay type: in vivo; details: Mus musculus, sc, 168 h; Sarcoma 180 s.c. in ddy mice; into tail vein 24 hours after implantation; volume at 7 days; read-out: ED50 (dose reducing tumour volume to 50% of control)
Protocol: as §2
(1) Effect against Sarcoma 180 solid tumour cells
5×10^6 cells of Sarcoma 180 solid tumour were intraperitoneally implanted into ddy mice. 7 days later, ascites cells were sampled. The cells were washed once with a sterilized physiological solution of sodium chloride and were used to prepare a cell suspension containing 5×10^7 cells per ml. On each occasion, 0.1 ml of the cell suspension was subcutaneously implanted into the right arm pit of a male mouse (ddy strain; body weight 20±2 g). The test compound was dissolved in a physiological solution of sodium chloride with or without addition of Tween 80 and was administered into the tail vein of each mouse of a group consisting of 5 mice at a dose of 0.1-0.2 ml, 24 hours after the implantation of the tumour cells.
The anti-tumour activity was determined in the following manner. 7 days after the implantation, the major axis (a) and the minor axis (b) of the tumour were measured to calculate a value of "a×b^2 /2" which corresponds to the volume of the tumour. The anti-tumour activity was expressed by the ratio of the volume of the tumours (T) of the group of animals administered with the test compound to the corresponding volume of tumours (c) of the untreated animals.
(2) Determination of ED50
(The amount needed for reducing the volume of Sarcoma 180 solid tumours in mice to 50% on the basis of the corresponding volume of Sarcoma solid tumours in control untreated animals). On graph paper, T/C (the ratio of the volume of tumours of treated and control animals) was indicated by an arithmetic scale on the longitudinal axis and the administered amount of the test compound was indicated by a logarithmic scale on the lateral axis.
The relationship between the dose and T/C was shown by a straight line determined by the method of least squares, from which a dose corresponding to T/C of 0.5 was obtained.

[6] = Acute toxicity in mice (LD50, Behrens Kerber's method); details: mouse, in vivo, ip; ddy mice, single intraperitoneal administration, 14 days observation
Protocol: as §2
Each animal of the test group consisting of 5 ddy mice was administered intraperitoneally once with a test compound. […] The LD50 was determined by Behrens Kerber's method.

SMILES | MIC (Bacillus subtilis 10707) [mg/L] | MIC [1] [mg/L] | MIC [2] [mg/L] | WBC4000 (dosage corresponding to 4000 peripheral leucocytes/mm^3) (peripheral leucocytes) [mg/kg] | MIC [3] [mg/L] | MIC [4] [mg/L] | MIC [5] [mg/L] | ED50 (Sarcoma 180 solid tumour) [mg/kg] | LD50 at 336 h [6] [mg/kg]
CO[C@@]12[C@H](COC(N)=O)C3=C(C(=O)C(C)=C(NCCSSc4cccc(N)c4)C3=O)N1C[C@@H]1N[C@@H]12 [Compound 3, 7-N-[2-(3-aminophenyldithio)ethyl]mitomycin C] | < 0.01 | 0.08 (≈ 0.155 µM) | 20 (≈ 38.6 µM) | > 10 | 5 (≈ 9.66 µM) | 0.04 (≈ 0.0773 µM) | 0.63 (≈ 1.22 µM) | 5 | 7.5
CO[C@@]12[C@H](COC(N)=O)C3=C(C(=O)C(C)=C(NCCSSc4ccc(N)cc4)C3=O)N1C[C@@H]1N[C@@H]12 [Compound 4, 7-N-[2-(4-aminophenyldithio)ethyl]mitomycin C] | 0.02 (≈ 0.0386 µM) | 0.08 (≈ 0.155 µM) | > 20 | > 10 | 5 (≈ 9.66 µM) | 0.04 (≈ 0.0773 µM) | 1.3 (≈ 2.51 µM) | 5.1 | 9
CC(=O)Nc1ccc(SSCCNC2=C(C)C(=O)C3=C(C2=O)[C@H](COC(N)=O)[C@@]2(O)[C@@H]4[C@H](CN32)N4C)cc1 (stereo partly drawn) [Compound 7, 7-N-[2-(4-Acetamidophenyldithio)ethyl]mitomycin D] | 5 (≈ 8.93 µM) | 10 (≈ 17.9 µM) |  | 45.5 | > 40 | 5 (≈ 8.93 µM) |  | > 25 | 46.3
COc1ccc(SSCCNC2=C(C)C(=O)C3=C(C2=O)[C@@H](COC(N)=O)[C@@]2(OC)[C@H]4N[C@H]4CN32)cc1 [Compound 9, 7-N-[2-(4-Methoxyphenyldithio)ethyl]mitomycin C] | < 0.02 | < 0.02 | 40 (≈ 75.1 µM) | > 10 | 1.3 (≈ 2.44 µM) | < 0.02 | 0.63 (≈ 1.18 µM) | 7.4 | 5.3
CC1=C(NCCSSC[C@H](N)C(=O)O)C(=O)C2=C(C1=O)N1C[C@H]3[C@H](N3C)[C@]1(O)[C@H]2COC(N)=O (stereo partly drawn) [Compound 15, 7-N-[2-[(L-Cystein-S-yl)thio]ethyl]mitomycin D] | 6.3 (≈ 12.3 µM) | 13 (≈ 25.3 µM) |  | 81.9 | 13 (≈ 25.3 µM) | 13 (≈ 25.3 µM) |  | 54 | 135
CO[C@@]12[C@H](COC(N)=O)C3=C(C(=O)C(C)=C(NCCSSC[C@H](NC(C)=O)C(=O)O)C3=O)N1C[C@@H]1N[C@@H]12 [Compound 19, 7-N-[2-[(N-Acetyl-L-cystein-S-yl)thio]ethyl]mitomycin C potassium salt] | 0.08 | 0.63 | > 20 |  | 2.5 | 1.3 | 0.63 |  | 
CC1=C(NCCSSC[C@H](N)C(=O)NCC(=O)O)C(=O)C2=C(C1=O)N1C[C@H]3[C@H](N3C)[C@]1(O)[C@H]2COC(N)=O (stereo partly drawn) [Compound 21, 7-N-[2-[(Glycino-L-cystein-S-yl)thio]ethyl]mitomycin D] | 3.1 (≈ 5.43 µM) | 13 (≈ 22.8 µM) |  | 83.9 | 13 (≈ 22.8 µM) | 13 (≈ 22.8 µM) |  | 61.1 | > 200
CO[C@@]12[C@H](COC(N)=O)C3=C(C(=O)C(C)=C(NCCSSC[C@H](NC(=O)CC[C@H](N)C(=O)O)C(=O)NCC(=O)O)C3=O)N1C[C@@H]1N[C@@H]12 [Compound 22, 7-N-[2-[(γ-L-Glutamyl-L-cysteinylglycin-S-yl)thio]ethyl]mitomycin C potassium salt] | 0.08 | 0.31 | > 20 |  | 2.5 | 1.3 | 0.63 |  | 
CO[C@@]12[C@H](COC(N)=O)C3=C(C(=O)C(C)=C(NCCSSC(C)(C)[C@@H](N)C(=O)O)C3=O)N1C[C@@H]1N[C@@H]12 [Compound 28] |  |  |  | 16.3 |  |  |  | 8.2 | 26.3
